For 30 compounds, EC50 results are on record in patent publication US20220226298A1, “GPR40 AGONISTS” (Kallyope, Inc., priority 2019, published 2022).

The assay concerns the target T1, human GPR40 (Homo sapiens, UniProt O14842).
T1 construct: host or cells: CHO-K1
The assay can be described thus: Inositol phosphate accumulation assay (IP1 HTRF) in CHO-K1 cells expressing human GPR40. Format: cell-based. The following applies: 90 min stimulation. On the procedure: CHO-KI cells expressing human GPR40 were purchased from DiscoverX (95-1005C2). HEK293 cells expressing mouse FFAR1 were prepared using a mouse FFAR1 carrying plasmid purchased from OriGene Technologies (MR222997). The cells were transfected using Lipofectamine 2000 using manufacturer instructions and stable cell line was established from a single cell using geneticine selection. Assay ready frozen (ARF) cells were prepared and used throughout the study.
The assay was performed in a 384-well plate format using IP1 assay kit from Cis-Bio. ARF cells expressing FFAR1 (mouse and human) were thawed, washed and then plated in the appropriate medium (F12 based medium for CHO hFFAR1 and DMEM based medium for HEK293 mFFAR1—both were supplemented with 10% FBS and penicillin/streptomycin). 20 μL of 3.5×10^5 cells/mL were plated on a Poly D-Lysine coated 384-well white plate. The cells were then incubated for 16 hr at 37° C./5% CO2. After 16 hr the medium was removed and 15 μL of stimulation buffer containing the test compounds was added to the cells. The plates were then incubated for 90 min at 37° C./5% CO2. 5 μL of detection buffer (prepared as described in the IP-one kit) was added to each well and the plates were incubated at RT for 1 hr.
[…] was measured using ClarioSTAR plate reader, calculating the ratio between emissions at 665 nm and 620 nm (HTRF ratio). HTRF ratio for positive (Max) and negative (Min) controls were used to normalize HTRF data and generate values for % activity. EC50 and Max activity values were determined using a standard 4-parameter fit.

Molecules are shown by their SMILES.

T1 sequence (O14842 whole entry): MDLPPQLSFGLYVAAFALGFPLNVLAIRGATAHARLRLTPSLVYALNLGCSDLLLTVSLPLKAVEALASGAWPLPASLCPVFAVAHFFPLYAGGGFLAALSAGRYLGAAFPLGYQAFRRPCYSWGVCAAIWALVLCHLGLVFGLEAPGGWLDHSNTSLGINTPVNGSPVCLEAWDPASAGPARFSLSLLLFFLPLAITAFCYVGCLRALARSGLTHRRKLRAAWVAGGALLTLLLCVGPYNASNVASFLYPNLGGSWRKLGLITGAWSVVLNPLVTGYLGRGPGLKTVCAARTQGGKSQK

The EC50 is the concentration at which the effect is half-maximal. Low readings indicate a more potent agent, high ones a less potent agent. Turning to `COc1ccc(F)c(-c2ccc(OC(=O)c3cccc([C@@H](CC(=O)O)C4CC4)c3)cc2)c1` [Compound 41], the concentration for a half-maximal effect (EC50) lay in the range of 0.1 to 0.5 µM.

Take `CC(c1cc(C(F)(F)F)ccc1C(F)(F)F)N1CC(C)(C(=O)Oc2cccc([C@@H](CC(=O)O)C3CC3)c2)C1` (stereo partly drawn) [Compound 12]: the EC50 is 0.01 to 0.1 µM.

In the case of `COc1cc(-c2cc(F)c(C(=O)Oc3cccc([C@H](C4CC4)[C@@](C)(F)C(=O)O)c3)cc2CN(C(C)C)C(C)C)ccn1` [Compound 39], the EC50 was no more than 0.01 µM.

`COc1cc(-c2ccc(C(=O)Oc3cccc(C(CS(=O)(=O)O)C4CC4)c3)cc2CN(C(C)C)C(C)C)c(F)cn1` (stereo not drawn) [Compound 67, 2-cyclopropyl-2-(3-((3-((diisopropylamino)methyl)-4-(5-fluoro-2-methoxypyridin-4-yl)benzoyl)oxy)phenyl)ethanesulfonic acid] showed an EC50 greater than 0.5 µM.

On to `O=C(O)C[C@H](c1cccc(OC(=O)c2ccc(-c3cc(O)ccc3F)cc2)c1)C1CC1` [Compound 2], for which the EC50 lay within 0.01 to 0.1 µM.

As to `COc1ccc(F)c(-c2ccc(C(=O)Oc3cccc([C@@H](CC(=O)O)C4CC4)c3)nc2)c1` [Compound 4], the EC50 is greater than 0.5 µM.

`COc1cc(-c2cc(F)c(OC(=O)c3cccc([C@H](C4CC4)[C@H](C)C(=O)O)c3)cc2CN(C(C)C)C(C)C)c(F)cn1` [Compound 60] returned an EC50 of no more than 0.01 µM.

Regarding `CCN(Cc1cc(-c2cc(OC)ncc2F)ccc1C(=O)Oc1cccc([C@@H](CC(=O)O)C2CC2)c1)C(C)C` [Compound 13], the half-maximal effective concentration (EC50) is greater than 0.5 µM.

In turn, `CCN(Cc1cc(C(=O)Oc2cccc([C@H](C3CC3)[C@@](C)(F)C(=O)O)c2)ccc1-c1cc(OC)ccc1F)C(C)C` [Compound 38] gave an EC50 of no more than 0.01 µM.

As for `COc1ccc(F)c([C@H]2CC[C@H](C(=O)Oc3cccc([C@H](C4CC4)[C@H](C)C(=O)O)c3)CC2)c1` [Compound 40, (2S,3R)-3-cyclopropyl-3-(3-(((1r,4R)-4-(2-fluoro-5-methoxyphenyl)cyclohexanecarbonyl)oxy)phenyl)-2-methylpropanoic acid], the EC50 is no more than 0.01 µM.

The compound `CC(c1cc(C(F)(F)F)ccc1C(F)(F)F)N1CCC(C(=O)Oc2cccc([C@H](C3CC3)[C@H](C)C(=O)O)c2)CC1` (stereo partly drawn) [Compound 22, (2S,3R)-3-(3-((1-(1-(2,5-bis(trifluoromethyl)phenyl)ethyl)piperidine-4-carbonyl)oxy)phenyl)-3-cyclopropyl-2-methylpropanoic acid] had an EC50 of no more than 0.01 µM.

For `COc1cc(-c2ccc(OC(=O)c3cccc([C@@H](CC(=O)O)C4CC4)c3)cc2)c(F)cn1` [Compound 44], the concentration for a half-maximal effect (EC50) fell in the range of 0.1 to 0.5 µM.

`COc1cc(-c2ccc(OC(=O)c3cccc([C@H](C4CC4)[C@@](C)(F)C(=O)O)c3)cc2CN(C(C)C)C(C)C)c(F)cn1` [Compound 63, (2R, 3S)-3-cyclopropyl-3-(3-((3-((diisopropylamino)methyl)-4-(5-fluoro-2-methoxypyridin-4-yl)phenoxy)carbonyl)phenyl)-2-fluoro-2-methylpropanoic acid]: the EC50 was no more than 0.01 µM.

In turn, `COc1cc(-c2ccc(C(=O)Oc3cccc([C@H](C4CC4)[C@H](C)C(=O)O)c3)cc2)c(F)cn1` [Compound 25] displayed an EC50 of no more than 0.01 µM.

Regarding `COc1cc(-c2ccc(C(=O)Oc3cccc([C@H](C4CC4)[C@H](C)C(=O)O)c3)cc2CN2CCC(C)(C)C2)c(F)cn1` [Compound 33, (2S,3R)-3-cyclopropyl-3-[3-[3-[(3,3-dimethylpyrrolidin-1-yl)methyl]-4-(5-fluoro-2-methoxy-4-pyridyl)benzoyl]oxyphenyl]-2-methyl-propanoic acid], the half-maximal effective concentration (EC50) was no more than 0.01 µM.

Take `COc1cc(-c2ccc(C(=O)Oc3cccc([C@H](C4CC4)[C@H](C)C(=O)O)c3)cc2CN(C(C)C)C(C)C)ccn1` [Compound 28]: the half-maximal effective concentration (EC50) is no more than 0.01 µM.

Compound `CCN(Cc1cc(C(=O)Oc2cccc([C@H](C3CC3)[C@H](C)C(=O)O)c2)ccc1-c1cc(OC)ccc1F)C(C)C` [Compound 30] returned an EC50 of no more than 0.01 µM.

The compound `CC(c1cc(C(F)(F)F)ccc1C(F)(F)F)N1CC[C@@H](OC(=O)c2cccc([C@@H](CC(=O)O)C3CC3)c2)C1` (stereo partly drawn) [Compound 48] showed an EC50 greater than 0.5 µM.

In the case of `CC(c1cc(C(F)(F)F)ccc1C(F)(F)F)N1CC[C@H](OC(=O)c2cccc([C@@H](CC(=O)O)C3CC3)c2)C1` (stereo partly drawn) [Compound 49], the concentration giving a half-maximal response (EC50) is greater than 0.5 µM.

The compound `COc1ccc(F)c(-c2ccc(C(=O)Oc3cccc([C@@H](CC(=O)O)C4CC4)c3)cc2)c1` [Compound 1, (S)-3-cyclopropyl-3-(3-((2′-fluoro-5′-methoxy-[1,1′-biphenyl]-4-carbonyl)oxy)phenyl) propanoic acid] returned a concentration giving a half-maximal response (EC50) of 0.01 to 0.1 µM.

`COc1cc(-c2cc(F)c(OC(=O)c3cccc([C@H](C4CC4)[C@H](C)C(=O)O)c3)cc2CN(C(C)C)C(C)C)ccn1` [Compound 59, (2S,3R)-3-cyclopropyl-3-(3-((5-((diisopropylamino)methyl)-2-fluoro-4-(2-methoxypyridin-4-yl)phenoxy)carbonyl)phenyl)-2-methylpropanoic acid] yielded an EC50 of no more than 0.01 µM.

Consider `COc1cc(-c2cc(C)c(C(=O)Oc3cccc([C@H](CP(C)(=O)O)C4CC4)c3)cc2CN(C(C)C)C(C)C)c(F)cn1` (single isomer, unassigned) [Compound 71a], for which the EC50 was greater than 0.5 µM.

As to `COc1cc(-c2ccc(C(=O)Oc3cccc([C@H](C4CC4)[C@H](C)C(=O)OCc4oc(=O)oc4C)c3)cc2CN(C(C)C)C(C)C)c(F)cn1` [Compound 65, 3-((1R, 2S)-1-cyclopropyl-2-methyl-3-((5-methyl-2-oxo-1,3-dioxol-4-yl)methoxy)-3-oxopropyl)phenyl 3-((diisopropylamino)methyl)-4-(5-fluoro-2-methoxypyridin-4-yl)benzoate], the EC50 was no more than 0.01 µM.

For the compound `CC(c1cc(C(F)(F)F)ccc1C(F)(F)F)N1CC(OC(=O)c2cccc([C@@H](CC(=O)O)C3CC3)c2)C1` (stereo partly drawn) [Compound 47], the 50% effective concentration (EC50) is greater than 0.5 µM.

With `CCN(Cc1cc(C(=O)Oc2cccc([C@@H](CC(=O)O)C3CC3)c2)c(C)cc1-c1cc(OC)ncc1F)C(C)C` [Compound 11, (S)-3-cyclopropyl-3-(3-((5-((ethyl(isopropyl)amino)methyl)-4-(5-fluoro-2-methoxypyridin-4-yl)-2-methylbenzoyl)oxy)phenyl)propanoic acid], the half-maximal effective concentration (EC50) lay in the range of 0.1 to 0.5 µM.

`CCN(Cc1cc(C(=O)Oc2cccc([C@H](C3CC3)[C@@](C)(F)C(=O)O)c2)ccc1-c1cc(OC)ncc1F)C(C)C` [Compound 37] came in with a concentration for a half-maximal effect (EC50) of no more than 0.01 µM.

Compound `COc1ccc(F)c(-c2nocc2C(=O)Oc2cccc([C@@H](CC(=O)O)C3CC3)c2)c1` [Compound 5, (3S)-3-cyclopropyl-3-[3-[3-(2-fluoro-5-methoxy-phenyl)isoxazole-4-carbonyl]oxyphenyl]propanoic acid] yielded a concentration giving a half-maximal response (EC50) greater than 0.5 µM.

The compound `COc1cc(-c2ccc(OC(=O)c3cccc([C@H](C4CC4)[C@H](C)C(=O)O)c3)cc2)c(F)cn1` [Compound 54] yielded an EC50 of no more than 0.01 µM.

`COc1cc(-c2ccc(C(=O)Oc3cccc([C@@H](CC(=O)O)C4CC4)c3)cc2)c(F)cn1` [Compound 3] came in with a concentration for a half-maximal effect (EC50) of 0.01 to 0.1 µM.

Compound `COc1cc(-c2ccc(C(=O)Oc3cccc([C@H](C4CC4)[C@H](C)C(=O)O)c3)c(C)c2)ccn1` [Compound 29] displayed a concentration for a half-maximal effect (EC50) of no more than 0.01 µM.
